Laboratory results as given in ChEMBL document CHEMBL2375302, “Synthesis, antimicrobial, antiquorum-sensing, antitumor and cytotoxic activities of new series of fused [1,3,4]thiadiazoles” (Eur J Med Chem, 2013).

Legend:
TK-10 = assay: Growth inhibition of human TK10 cells at 10 uM after 48 hrs by coulter counter analysis relative to control; type: functional; conditions: TK-10, 48 h, read-out: GI
LOX IMVI = assay: Growth inhibition of human LOXIMVI cells at 10 uM after 48 hrs by coulter counter analysis relative to control; type: functional; conditions: read-out: GI
786-0 = assay: Growth inhibition of human 786-0 cells at 10 uM after 48 hrs by coulter counter analysis relative to control; type: functional; conditions: 786-0, 48 h, read-out: GI
SF-539 = assay: Growth inhibition of human SF539 cells at 10 uM after 48 hrs by coulter counter analysis relative to control; type: functional; conditions: SF-539, 48 h, read-out: GI
Staphylococcus aureus = assay: Antibacterial activity against Staphylococcus aureus at 5 mg/mL after 24 hrs; type: functional; conditions: read-out: DIZ
ACHN = assay: Growth inhibition of human ACHN cells at 10 uM after 48 hrs by coulter counter analysis relative to control; type: functional; conditions: read-out: GI
HCT-116 = assay: Growth inhibition of human HCT116 cells at 10 uM after 48 hrs by coulter counter analysis relative to control; type: functional; conditions: HCT-116, 48 h, read-out: GI
K562 = assay: Growth inhibition of human K562 cells at 10 uM after 48 hrs by coulter counter analysis relative to control; type: functional; conditions: K562, 48 h, read-out: GI
CCRF-CEM = assay: Growth inhibition of human CCRF-CEM cells at 10 uM after 48 hrs by coulter counter analysis relative to control; type: functional; conditions: read-out: GI
HT-29 = assay: Growth inhibition of human HT-29 cells at 10 uM after 48 hrs by coulter counter analysis relative to control; type: functional; conditions: HT-29, 48 h, read-out: GI
HOP-62 = assay: Growth inhibition of human HOP62 cells at 10 uM after 48 hrs by coulter counter analysis relative to control; type: functional; conditions: HOP-62, 48 h, read-out: GI
RXF 393 = assay: Growth inhibition of human RXF393 cells at 10 uM after 48 hrs by coulter counter analysis relative to control; type: functional; conditions: RXF 393, 48 h, read-out: GI
Aspergillus fumigatus = assay: Antifungal activity against Aspergillus fumigatus Af293 at 5 mg/mL after 48 hrs; type: functional; conditions: Af293, 48 h, read-out: DIZ
SF-268 = assay: Growth inhibition of human SF268 cells at 10 uM after 48 hrs by coulter counter analysis relative to control; type: functional; conditions: SF-268, 48 h, read-out: GI
PC-3 = assay: Growth inhibition of human PC3 cells at 10 uM after 48 hrs by coulter counter analysis relative to control; type: functional; conditions: PC-3, 48 h, read-out: GI
IGROV-1 = assay: Growth inhibition of human IGROV1 cells at 10 uM after 48 hrs by coulter counter analysis relative to control; type: functional; conditions: IGROV-1, 48 h, read-out: GI
Aspergillus flavus = assay: Antifungal activity against Aspergillus flavus 3372 at 5 mg/mL after 48 hrs; type: functional; conditions: Aspergillus flavus, 3372, 48 h; read-out: DIZ
SW-620 = assay: Growth inhibition of human SW620 cells at 10 uM after 48 hrs by coulter counter analysis relative to control; type: functional; conditions: SW-620, 48 h, read-out: GI
NCI-H23 = assay: Growth inhibition of human NCI-H23 cells at 10 uM after 48 hrs by coulter counter analysis relative to control; type: functional; conditions: NCI-H23, 48 h, read-out: GI
SNB-19 = assay: Growth inhibition of human SNB19 cells at 10 uM after 48 hrs by coulter counter analysis relative to control; type: functional; conditions: SNB-19, 48 h, read-out: GI
UACC-257 = assay: Growth inhibition of human UACC257 cells at 10 uM after 48 hrs by coulter counter analysis relative to control; type: functional; conditions: UACC-257, 48 h, read-out: GI
T47D = assay: Growth inhibition of human T47D cells at 10 uM after 48 hrs by coulter counter analysis relative to control; type: functional; conditions: read-out: GI
[1] = Growth inhibition of human EKVX cells at 10 uM after 48 hrs by coulter counter analysis relative to control; type: functional; conditions: read-out: GI
[2] = Growth inhibition of human NCI-ADR-RES cells at 10 uM after 48 hrs by coulter counter analysis relative to control; type: functional; conditions: read-out: GI
Malme-3M = assay: Growth inhibition of human MALME-3M cells at 10 uM after 48 hrs by coulter counter analysis relative to control; type: functional; conditions: read-out: GI
NCI-H522 = assay: Growth inhibition of human NCI-H522 cells at 10 uM after 48 hrs by coulter counter analysis relative to control; type: functional; conditions: NCI-H522, 48 h, read-out: GI
SK-MEL-28 = assay: Growth inhibition of human SK-MEL-28 cells at 10 uM after 48 hrs by coulter counter analysis relative to control; type: functional; conditions: SK-MEL-28, 48 h, read-out: GI
M14 = assay: Growth inhibition of human M14 cells at 10 uM after 48 hrs by coulter counter analysis relative to control; type: functional; conditions: M14, 48 h, read-out: GI
[3] = Toxicity against brine shrimp larvae assessed as mortality at 500 ug/mL after 24 hrs by binocular microscopic analysis relative to control; type: organism-based; conditions: artemia salina, in vivo
MDA-MB-435 = assay: Growth inhibition of human MDA-MB-435 cells at 10 uM after 48 hrs by coulter counter analysis relative to control; type: functional; conditions: MDA-MB-435, 48 h, read-out: GI
SN12C = assay: Growth inhibition of human SN12C cells at 10 uM after 48 hrs by coulter counter analysis relative to control; type: functional; conditions: read-out: GI
HCT-15 = assay: Growth inhibition of human HCT15 cells at 10 uM after 48 hrs by coulter counter analysis relative to control; type: functional; conditions: HCT-15, 48 h, read-out: GI
MOLT-4 = assay: Growth inhibition of human MOLT4 cells at 10 uM after 48 hrs by coulter counter analysis relative to control; type: functional; conditions: MOLT-4, 48 h, read-out: GI
HL-60(TB) = assay: Growth inhibition of human HL-60(TB) cells at 10 uM after 48 hrs by coulter counter analysis relative to control; type: functional; conditions: HL-60, 48 h, read-out: GI
A549 = assay: Growth inhibition of human A549 cells at 10 uM after 48 hrs by coulter counter analysis relative to control; type: functional; conditions: A549, 48 h, read-out: GI
Bacillus cereus = assay: Antibacterial activity against Bacillus cereus at 5 mg/mL after 24 hrs; type: functional; conditions: read-out: DIZ
NCI-H226 = assay: Growth inhibition of human NCI-H226 cells at 10 uM after 48 hrs by coulter counter analysis relative to control; type: functional; conditions: NCI-H226, 48 h, read-out: GI
DU-145 = assay: Growth inhibition of human DU145 cells at 10 uM after 48 hrs by coulter counter analysis relative to control; type: functional; conditions: DU-145, 48 h, read-out: GI
[4] = test system: Chromobacterium violaceum; assay: Antiquorum-sensing activity against Chromobacterium violaceum ATCC 12472 after 48 hrs; type: functional

| Compound | inhibition of growth at 10 µM (TK-10) [%] | inhibition of growth at 10 µM (LOX IMVI) [%] | inhibition of growth at 10 µM (786-0) [%] | inhibition of growth at 10 µM (SF-539) [%] | zone of inhibition at 5000 µg/mL (Staphylococcus aureus) [mm] | inhibition of growth at 10 µM (ACHN) [%] | inhibition of growth at 10 µM (HCT-116) [%] | inhibition of growth at 10 µM (K562) [%] | inhibition of growth at 10 µM (CCRF-CEM) [%] | inhibition of growth at 10 µM (HT-29) [%] | inhibition of growth at 10 µM (HOP-62) [%] | inhibition of growth at 10 µM (RXF 393) [%] | zone of inhibition at 5000 µg/mL (Aspergillus fumigatus) [mm] | inhibition of growth at 10 µM (SF-268) [%] | inhibition of growth at 10 µM (PC-3) [%] | inhibition of growth at 10 µM (IGROV-1) [%] | zone of inhibition at 5000 µg/mL (Aspergillus flavus) [mm] | inhibition of growth at 10 µM (SW-620) [%] | inhibition of growth at 10 µM (NCI-H23) [%] | inhibition of growth at 10 µM (SNB-19) [%] | further results |
| --- | --- | --- | --- | --- | --- | --- | --- | --- | --- | --- | --- | --- | --- | --- | --- | --- | --- | --- | --- | --- | --- |
| N#Cc1cnc2sc(S(N)(=O)=O)nn2c1=N | < 10 | 15.1 | < 10 | < 10 | < 2 | < 10 | < 10 | < 10 | < 10 | < 10 | 10.7 | < 10 | < 2 | < 10 | < 10 | < 10 | < 2 | < 10 | < 10 | < 10 | inhibition of growth at 10 µM (UACC-257): < 10%; inhibition of growth at 10 µM (T47D): < 10%; inhibition of growth at 10 µM [1]: < 10%; inhibition of growth at 10 µM [2]: < 10%; inhibition of growth at 10 µM (Malme-3M): < 10%; inhibition of growth at 10 µM (NCI-H522): < 10%; inhibition of growth at 10 µM (SK-MEL-28): < 10%; inhibition of growth at 10 µM (M14): < 10%; mortality at 24 h, 500 ug/mL [3]: 90%; inhibition of growth at 10 µM (MDA-MB-435): < 10%; inhibition of growth at 10 µM (SN12C): < 10%; inhibition of growth at 10 µM (HCT-15): < 10%; inhibition of growth at 10 µM (MOLT-4): < 10%; inhibition of growth at 10 µM (HL-60(TB)): 29.3%; inhibition of growth at 10 µM (A549): < 10%; zone of inhibition at 5000 µg/mL (Bacillus cereus): < 2 mm; inhibition of growth at 10 µM (NCI-H226): < 10%; inhibition of growth at 10 µM (DU-145): < 10%; diameter of the inhibition zone (DIZ) [4]: 11 mm |
| CCOC(=O)C1C(=O)N=C2SC(S(N)(=O)=O)=NN2C1c1ccc(N(C)C)cc1 (configuration not stated) | < 10 | 11.7 | < 10 | < 10 | 5 | < 10 | < 10 | < 10 | < 10 | < 10 | < 10 | < 10 | 4 | < 10 | 11.4 | < 10 | < 2 | < 10 | < 10 | < 10 | inhibition of growth at 10 µM (UACC-257): < 10%; inhibition of growth at 10 µM (T47D): < 10%; inhibition of growth at 10 µM [1]: 12.2%; inhibition of growth at 10 µM [2]: < 10%; inhibition of growth at 10 µM (Malme-3M): 14.9%; inhibition of growth at 10 µM (NCI-H522): 19.3%; inhibition of growth at 10 µM (SK-MEL-28): < 10%; inhibition of growth at 10 µM (M14): < 10%; mortality at 24 h, 500 ug/mL [3]: 93.3%; inhibition of growth at 10 µM (MDA-MB-435): 21.3%; inhibition of growth at 10 µM (SN12C): < 10%; inhibition of growth at 10 µM (HCT-15): < 10%; inhibition of growth at 10 µM (MOLT-4): < 10%; inhibition of growth at 10 µM (HL-60(TB)): 21%; inhibition of growth at 10 µM (A549): < 10%; zone of inhibition at 5000 µg/mL (Bacillus cereus): 5 mm; inhibition of growth at 10 µM (NCI-H226): < 10%; inhibition of growth at 10 µM (DU-145): < 10%; diameter of the inhibition zone (DIZ) [4]: <2 mm |
| N#Cc1cnc2sc(S(N)(=O)=O)nn2c1=O | < 10 | 10.7 | < 10 | < 10 | 18 | < 10 | < 10 | < 10 | < 10 | < 10 | < 10 | < 10 | < 2 | < 10 | < 10 | < 10 | < 2 | < 10 | < 10 | < 10 | inhibition of growth at 10 µM (UACC-257): < 10%; inhibition of growth at 10 µM (T47D): < 10%; inhibition of growth at 10 µM [1]: < 10%; inhibition of growth at 10 µM [2]: < 10%; inhibition of growth at 10 µM (Malme-3M): 28%; inhibition of growth at 10 µM (NCI-H522): < 10%; inhibition of growth at 10 µM (SK-MEL-28): < 10%; inhibition of growth at 10 µM (M14): < 10%; mortality at 24 h, 500 ug/mL [3]: 83.3%; inhibition of growth at 10 µM (MDA-MB-435): < 10%; inhibition of growth at 10 µM (SN12C): < 10%; inhibition of growth at 10 µM (HCT-15): < 10%; inhibition of growth at 10 µM (MOLT-4): < 10%; inhibition of growth at 10 µM (HL-60(TB)): 18.4%; inhibition of growth at 10 µM (A549): < 10%; zone of inhibition at 5000 µg/mL (Bacillus cereus): 2 mm; inhibition of growth at 10 µM (NCI-H226): < 10%; inhibition of growth at 10 µM (DU-145): < 10%; diameter of the inhibition zone (DIZ) [4]: 10 mm |
